Source: US7247617B2, “Sixteen-member macrolide antiinfective agents” (Kosan Biosciences Incorporated, priority 2004, dated 2007)

Legend:
S. pneumoniae = assay: Biological activity against bacterial strains: S. pneumoniae; format: cell-based, Streptococcus pneumoniae; set-up: Biological Activity, S. pneumoniae ATCC6301 / Biological Activity, S. pneumoniae ATCC700671 / Biological Activity, S. pneumoniae ATCC700676* / Biological Activity, S. pneumoniae ATCC700677* / Biological Activity, S. pneumoniae ATCC700905* / Biological Activity, S. pneumoniae ATCC700906* / Biological Activity, S. pneumoniae ATCC49619: unit not given here; conditions: for Biological Activity, S. pneumoniae ATCC6301: strain ATCC6301; for Biological Activity, S. pneumoniae ATCC49619: strain ATCC49619; for Biological Activity, S. pneumoniae ATCC700671: strain ATCC700671; for Biological Activity, S. pneumoniae ATCC700676*: strain ATCC700676, macrolide resistant strain; for Biological Activity, S. pneumoniae ATCC700677*: strain ATCC700677, macrolide resistant strain; for Biological Activity, S. pneumoniae ATCC700905*: strain ATCC700905, macrolide resistant strain; for Biological Activity, S. pneumoniae ATCC700906*: strain ATCC700906, macrolide resistant strain
E. faecalis = assay: Biological activity against bacterial strains: E. faecalis; format: cell-based, Enterococcus faecalis; conditions: strain ATCC51575
S. aureus = assay: Biological activity against bacterial strains: S. aureus; format: cell-based, Staphylococcus aureus; set-up: unit not given here; conditions: for Biological Activity, S. aureus ATCC6538p: strain ATCC6538p; for Biological Activity, S. aureus ATCC14154*: strain ATCC14154, macrolide resistant strain; for Biological Activity, S. aureus ATCC29213: strain ATCC29213; for Biological Activity, S. aureus ATCC33591*: strain ATCC33591, macrolide resistant strain; for Biological Activity, S. aureus ATCCBAA-39*: strain ATCCBAA-39, macrolide resistant strain; for Biological Activity, S. aureus ATCCBAA-44*: strain ATCCBAA-44, macrolide resistant strain
S. epidermidis = assay: Biological activity against bacterial strains: S. epidermidis; format: cell-based, Staphylococcus epidermidis; conditions: strain ATCC12228

Structure (SMILES)	Biological Activity, S. pneumoniae ATCC6301 (S. pneumoniae)	Biological Activity, S. pneumoniae ATCC49619 (S. pneumoniae)	Biological Activity, S. pneumoniae ATCC700671 (S. pneumoniae)	Biological Activity, S. pneumoniae ATCC700676* (S. pneumoniae)	Biological Activity, S. pneumoniae ATCC700677* (S. pneumoniae)	Biological Activity, S. pneumoniae ATCC700905* (S. pneumoniae)	Biological Activity, S. pneumoniae ATCC700906* (S. pneumoniae)	Biological Activity, E. faecalis ATCC51575 (E. faecalis)	Biological Activity, S. aureus ATCC6538p (S. aureus)	Biological Activity, S. aureus ATCC14154* (S. aureus)	Biological Activity, S. aureus ATCC29213 (S. aureus)	Biological Activity, S. aureus ATCC33591* (S. aureus)	Biological Activity, S. aureus ATCCBAA-39* (S. aureus)	Biological Activity, S. aureus ATCCBAA-44* (S. aureus)	Biological Activity, S. epidermidis ATCC12228 (S. epidermidis)
CCC1OC(=O)CC(O)C(C)C(OC2OC(C)C(O)C(N(C)C)C2O)C(CC=O)CC(C)C(=NOCC=Cc2ccc3nccnc3c2)C=CC(C)=CC1CO (stereo not drawn) [Compound H]	0.025	0.025	0.049	0.049	>12.5	0.049	>12.5	>12.5	0.20	0.39	0.39	>12.5	>12.5	>12.5	0.20
CC[C@H]1OC(=O)C[C@@H](O)[C@H](C)[C@@H](OC2OC(C)C(O)C(N(C)C)C2O)[C@@H](CC=O)C[C@@H](C)C(=N/OCCOc2ccccc2)/C=C/C(C)=C/C1CO (stereo partly drawn) [Compound IIa]	0.20	0.20	0.39	0.20	3.12	0.39	>12.5	>12.5	0.78	1.56	1.56	>12.5	>12.5	>12.5	1.56
CC[C@H]1OC(=O)C[C@@H](O)[C@H](C)[C@@H](OC2OC(C)C(O)C(N(C)C)C2O)[C@@H](CC=O)C[C@@H](C)C(=N\OCc2ccc(F)cc2)/C=C/C(C)=C/C1CO (stereo partly drawn) [Compound IIc]	0.2	0.2	0.39	0.2	3.12	0.39	>12.5	>12.5	0.78	1.56	1.56	>12.5	>12.5	>12.5	1.56
CC[C@H]1OC(=O)C[C@@H](O)[C@H](C)[C@@H](OC2OC(C)C(O)C(N(C)C)C2O)[C@@H](CC=O)C[C@@H](C)C(=N/OCc2ccc(F)cc2)/C=C/C(C)=C/C1CO (stereo partly drawn) [Compound IId]	0.025	0.2	0.2	0.025	1.56	0.2	>12.5	>12.5	0.39	1.56	1.56	>12.5	>12.5	>12.5	0.78
CCC1OC(=O)CC(O)C(C)C(OC2OC(C)C(O)C(N(C)C)C2O)C(CCN2CC(C)CC(C)C2)CC(C)C(=NOCCOc2ccccc2)C=CC(C)=CC1COC1OC(C)C(O)C(OC)C1OC (stereo not drawn) [Compound O]	0.39	0.78	0.39	1.56	6.25	0.78	12.5	>12.5	0.20	0.78	0.39	>12.5	>12.5	>12.5	0.39
CCC1OC(=O)CC(O)C(C)C(OC2OC(C)C(O)C(N(C)C)C2O)C(CCN2CC(C)CC(C)C2)CC(C)C(=NOCCCOc2ccc3ncccc3c2)C=CC(C)=CC1CO (stereo not drawn) [Compound R]	6.25	6.25	6.25	>12.5	>12.5	>12.5	>12.5	>12.5	12.5	>12.5	>12.5	>12.5	>12.5	>12.5	>12.5
CCC1OC(=O)CC(O)C(C)C(OC2OC(C)C(O)C(N(C)C)C2O)C(CCN2CC(C)CC(C)C2)CC(C)C(=NOCCCOc2ccc3ncccc3c2)C=CC(C)=CC1CO (stereo not drawn) [Compound S]	6.25	6.25	6.25	12.5	>12.5	12.5	>12.5	>12.5	>12.5	>12.5	>12.5	>12.5	>12.5	>12.5	>12.5
CCC1OC(=O)CC(O)C(C)C(OC2OC(C)C(O)C(N(C)C)C2O)C(CCN2CC(C)CC(C)C2)CC(C)C(=NOCCOc2ccccc2)C=CC(C)=CC1CO (stereo not drawn) [Compound V]	0.20	0.39	0.39	0.78	>12.5	0.39	>12.5	>12.5	0.78	6.25	6.25	>12.5	>12.5	>12.5	6.25
CCC1OC(=O)CC(O)C(C)C(OC2OC(C)C(O)C(N(C)C)C2O)C(CCN2CC(C)CC(C)C2)CC(C)C(=NOCc2ccc(F)cc2)C=CC(C)=CC1CO (stereo not drawn) [Compound W]	0.39	0.39	0.39	0.39	>12.5	0.39	>12.5	>12.5	0.78	3.12	3.12	>12.5	>12.5	>12.5	3.12
